Results published in the NIST ThermoML archive (doi:10.1016/j.jct.2016.08.006).

Assay: molar heat capacity at constant pressure; xn = mol fraction of the nth substance listed
Settings: 101.3 kPa, Liquid, Small sample (50 mg) DSC

NCCN1CCNCC1 [N-(β-aminoethyl)piperazine)] + O
molar heat capacity at constant pressure [J/K/mol]
Settings | x1 = 0.1 | x1 = 0.3 | x1 = 0.5 | x1 = 0.7 | x1 = 0.9 | x1 = 1
303.2 K | 109.7 | 157.3 | 202.1 | 242.8 | 278.3 | 289.7
308.2 K | 110.2 | 158.5 | 203.2 | 244.3 | 279.8 | 290.8
313.2 K | 110.7 | 160.3 | 204.8 | 246.3 | 281.6 | 293.1
318.2 K | 111 | 162.1 | 206.3 | 248.1 | 283.1 | 294.7
323.2 K | 111.4 | 164.3 | 208.5 | 250.6 | 285.2 | 296.9
328.2 K | 111.4 | 165.7 | 210 | 252.5 | 287 | 298.5
333.2 K | 111.6 | 167.3 | 211.8 | 253.5 | 289 | 300.7
338.2 K | 111.8 | 168.7 | 213.6 | 254.5 | 290.9 | 302.2
343.2 K | 112.4 | 170.1 | 215.2 | 255.9 | 292 | 303.3
348.2 K | 112.6 | 171.4 | 216.3 | 256.2 | 292.5 | 303.6
353.2 K | 112.9 | 173.1 | 217.6 | 257.3 | 293.7 | 304.6

CNCCN(C)C [N,N,N'-trimethylethylenediamine] + O
molar heat capacity at constant pressure [J/K/mol]
Settings | x1 = 0.1 | x1 = 0.3 | x1 = 0.5 | x1 = 0.7 | x1 = 0.9 | x1 = 1
303.2 K | 105.2 | 151 | 188.5 | 217.4 | 245.2 | 258.3
308.2 K | 105.5 | 152.4 | 190.1 | 219.1 | 246.8 | 260
313.2 K | 106.1 | 154 | 192.1 | 221.2 | 249.3 | 262.7
318.2 K | 106.5 | 155.6 | 193.9 | 223.1 | 251.7 | 265.3
323.2 K | 107.3 | 157.8 | 196.1 | 226 | 255.5 | 269.2
328.2 K | 107.6 | 159.5 | 198.2 | 228.5 | 258.7 | 272.7
333.2 K | 108.1 | 161.4 | 200.2 | 231 | 261.8 | 276
338.2 K | 108.5 | 162.7 | 201.9 | 233.3 | 264.4 | 278.9
343.2 K | 109 | 163.8 | 203.3 | 235.3 | 267.3 | 281.3
348.2 K | 109.4 | 164.8 | 204.4 | 237.5 | 270.2 | 283.4
353.2 K | 110.3 | 166.2 | 206.3 | 239.8 | 273.1 | 286.6
